Source: ChEMBL document CHEMBL1221343, “Caelestines A-D, brominated quinolinecarboxylic acids from the Australian ascidian Aplidium caelestis” (J Nat Prod, 2010)
Activity calls are given as the source filed them. The calls are words filed in the database; no cut-off is given here.

Assays:
MM96L = test: Cytotoxicity against human MM96L cells at 100 uM; format: functional
Staphylococcus aureus [1] = test: Antimicrobial activity against methicillin-sensitive Staphylococcus aureus ATCC 25923 at 0.1 to 10 mM after 20 hrs by CLSI broth microdilution method; format: functional, organism-based
[2] = Cytotoxicity against human NFF cells at 100 uM; format: cell-based; conditions: read-out: INH
Staphylococcus aureus [3] = test: Antimicrobial activity against multidrug-resistant Staphylococcus aureus ATCC 43300 at 0.1 to 10 mM after 20 hrs by CLSI broth microdilution method; format: functional, organism-based
Pseudomonas aeruginosa = test: Antimicrobial activity against Pseudomonas aeruginosa NCTC 10662 at 0.1 to 10 mM after 20 hrs by CLSI broth microdilution method; format: functional, organism-based
Candida albicans = test: Antimicrobial activity against Candida albicans ATCC 10231 at 0.1 to 10 mM after 20 hrs by CLSI broth microdilution method; format: functional, organism-based
Enterococcus faecalis = test: Antimicrobial activity against Enterococcus faecalis ATCC 19433 at 0.1 to 10 mM after 20 hrs by CLSI broth microdilution method; format: functional, organism-based
Escherichia coli = test: Antimicrobial activity against Escherichia coli ATCC 25922 at 0.1 to 10 mM after 20 hrs by CLSI broth microdilution method; format: functional, organism-based
MCF7 = test: Cytotoxicity against human MCF7 cells at 100 uM; format: functional

Compound	inhibition at 100 µM (MM96L) [%]	Activity (Staphylococcus aureus [1])	cytotoxicity at 100 µM [2] [%]	Activity (Staphylococcus aureus [3])	Activity (Pseudomonas aeruginosa)	Activity (Candida albicans)	Activity (Enterococcus faecalis)	Activity (Escherichia coli)	inhibition at 100 µM (MCF7) [%]
O=C(O)c1cc(O)c2ccc(Br)cc2n1	62	inactive	57	inactive	inactive	inactive	inactive	inactive	39
O=C(O)c1cc(=O)c2cc(Br)c(Br)cc2[nH]1	69	inactive	66	inactive	inactive	inactive	inactive	inactive	49
COc1c(Br)c(Br)cc2c(=O)cc(C(=O)O)[nH]c12	52	inactive	68	inactive	inactive	inactive	inactive	inactive	38
COc1cc(Br)cc2c(=O)cc(C(=O)O)[nH]c12	54	inactive	58	inactive	inactive	inactive	inactive	inactive	40
